# According to patent publication US20230117205A1, “B7-H4 ANTIBODY-DRUG CONJUGATES FOR THE TREATMENT OF CANCER” (SEAGEN INC., priority 2021, published 2023):
# Legend:
# [1] = tested on: MDA-MB-468 tumor and PBMC co-cultures; experiment: Tumor/PBMC co-culture assay; type: cell-based, human; settings: tumor/immune cell co-cultures
# Procedure: Tumor cells were transfected with Incucyte® Cytolight red lentivirus per manufacturer's instructions and stable polyclonal cell populations expressing mKate2 (red fluorescent protein, RFP) were generated under puromycin selection. Live-cell killing assays were performed by seeding RFP+ MDA-MB-468 tumor cells in 96-well flat bottom plates (Corning #3603) at a variety of densities (3,750-10,000 cells/well) and grown overnight. The following day, PBMCs isolated from healthy donors were added at 15:1 or 25:1 effector to target (E:T) ratios and cultures were treated with the indicated small molecule drugs or ADCs. To evaluate immune cell activation, supernatants were harvested between 120 and 144 hours post treatment and MIP-1β production was evaluated by Milliplex MAP Human cytokine/chemokine/growth factor panel A (12-plex) Immunology Multiple Assay (Millipore Sigma #HCYTA-60K-12C). […] Following the final wash, cell pellets were resuspended in 200 μL staining buffer and analyzed on an NXT Attune flow cytometer (ThermoFisher). Flow cytometry data were analyzed using FlowJo software and monocyte activation was quantified by measuring the MFI of CD86 staining on CD14+ monocytes within the RFP−/live/CD19−/CD3−/CD14+ gate.
# [2] = tested on: MDA-MB-468 xenograft tumors; experiment: Gene ontology (GO) term analysis of treated MDA-MB-468 xenograft tumors; type: in vivo, NSG mice
# Procedure: For RNAseq, RNA was extracted from tumors and library preparation for […] sequencing was performed using PolyA selection. RNA was sequenced using the Illumina HiSeq platform 2×150 bp configuration. RNA extraction, library preparation, and sequencing were performed by GENEWIZ. Adaptors were trimmed using cutadapt version 1.16, reads were aligned to a composite (GRCh38(h38)/GRCm38(mm10)) genome using STAR version 2.5.2. Transcripts and genes were quantitated via RSEM version 1.2.31. Quantitative and statistical differences were determined between groups of samples using DESeq2 version 1.28.1. GO term and gene set enrichment analysis was performed with clusterProfiler version 3.16.1, msigdbr version 7.1.1, AnnotationDbi version 1.50.3, org.Mm.eg.db version 3.11.4, and org.Hs.eg.db version 3.11.4. […] Only GO terms with a p-value and q-value of 0.05 or less were retained. Figures were replotted using GraphPad Prism. The raw fastq files as well as the mapped BAM files are stored on the Seagen linux storage location: /fc1/jobs/research/RNASeq/.
substance,measurement,setting,value
SGN-B7H4V: ADC of fully human IgG1 anti-B7-H4 mAb conjugated to monomethyl auristatin E (MMAE) via a protease-cleavable valine-citrulline linker (vedotin),CD86 on CD14+ monocytes,[1],upregulation of the costimulatory molecule CD86
same,release of MIP-1β/CCL4,[1],led to the release of the chemoattractant MIP-1β/CCL4
same,human gene categories related to apoptosis/programmed cell death pathways,[2]; compared to B7H41001 mAb-DM1,elevated
same,mouse immune-related GO terms,[2]; compared to B7H41001 mAb-DM1,increased
same,human gene categories related to the immune response,[2]; compared to B7H41001 mAb-DM4,elevated
same,mouse immune-related gene categories,[2]; compared to B7H41001 mAb-DM4,elevated
